Data from US11450805B2, “Compound, semiconductor material, and methods for manufacturing coating and semiconductor using the same” (Merck Patent GmbH, priority 2016, dated 2022).

Test: Evaluation of solubility of solute in solvents (visual inspection)
Type: physicochemical
Conditions: stirring at room temperature for 60 minutes; for Solubility, solvent PGME:EL = 7:3: PGME:EL = 7:3 volume ratio; for Solubility, solvent PGME:PGMEA = 7:3: PGME:PGMEA = 7:3 volume ratio
Procedure: Comparative compound 1 was added as a solute to each of the various solvents listed in Table 1 in an amount of 10% by mass, and mixed with the solvent by stirring at room temperature for 60 minutes. When 10% by mass of the solute was not fully dissolved in the solvent, the amount of the solute added was changed to 1% by mass, and 1% by mass of the solute was mixed with the solvent in the same manner as above.
The state of dissolution of the solute was visually inspected and evaluated as follows.
A: Even when the amount of the solute mixed with the solvent was 10% by mass, the solute was fully dissolved.
B: When the amount of the solute mixed with the solvent was 10% by mass, the solute was not fully dissolved and some of it remained undissolved, while when the amount of the solute mixed with the solvent was 1% by mass, the solute was fully dissolved.
C: Even when the amount of the solute mixed with the solvent was 1% by mass, the solute was not fully dissolved and some of it remained undissolved.
Experiments were conducted in the same manner as above, except for changing the solute from comparative compound 1 to other compounds listed in Table 1.

| SMILES | Solubility, solvent PGME:EL = 7:3 | Solubility, solvent PGME:PGMEA = 7:3 | Solubility, solvent PGME |
| --- | --- | --- | --- |
| c1ccc(-c2c(-c3ccccc3)c(-c3ccccc3)c(-c3ccc(-c4c(-c5ccccc5)c(-c5ccccc5)c(-c5ccccc5)c(-c5ccccc5)c4-c4ccccc4)cc3)c(-c3ccccc3)c2-c2ccccc2)cc1 [Comparative compound 1, reference compound] | C (Even when the amount of the solute mixed with the solvent was 1% by mass, the solute was not fully dissolved and some of it remained undissolved.) | C (Even when the amount of the solute mixed with the solvent was 1% by mass, the solute was not fully dissolved and some of it remained undissolved.) | C (Even when the amount of the solute mixed with the solvent was 1% by mass, the solute was not fully dissolved and some of it remained undissolved.) |
| Oc1ccc(-c2c(-c3ccccc3)c(-c3ccccc3)c(-c3ccc(-c4c(-c5ccccc5)c(-c5ccccc5)c(-c5ccc(O)cc5)c(-c5ccc(O)cc5)c4-c4ccccc4)cc3)c(-c3ccccc3)c2-c2ccc(O)cc2)cc1 [G1] | A (Even when the amount of the solute mixed with the solvent was 10% by mass, the solute was fully dissolved.) | A (Even when the amount of the solute mixed with the solvent was 10% by mass, the solute was fully dissolved.) | A (Even when the amount of the solute mixed with the solvent was 10% by mass, the solute was fully dissolved.) |
| Oc1ccc(-c2c(-c3ccccc3)c(-c3ccccc3)c(-c3c4ccccc4c(-c4c(-c5ccccc5)c(-c5ccccc5)c(-c5ccc(O)cc5)c(-c5ccc(O)cc5)c4-c4ccccc4)c4ccccc34)c(-c3ccccc3)c2-c2ccc(O)cc2)cc1 [G2] | A (Even when the amount of the solute mixed with the solvent was 10% by mass, the solute was fully dissolved.) | A (Even when the amount of the solute mixed with the solvent was 10% by mass, the solute was fully dissolved.) | A (Even when the amount of the solute mixed with the solvent was 10% by mass, the solute was fully dissolved.) |
| Oc1ccc(-c2c(-c3ccccc3)cc(-c3ccc(-c4cc(-c5ccccc5)c(-c5ccc(O)cc5)c(-c5ccc(O)cc5)c4-c4ccccc4)cc3)c(-c3ccccc3)c2-c2ccc(O)cc2)cc1 [G3] | A (Even when the amount of the solute mixed with the solvent was 10% by mass, the solute was fully dissolved.) | A (Even when the amount of the solute mixed with the solvent was 10% by mass, the solute was fully dissolved.) | A (Even when the amount of the solute mixed with the solvent was 10% by mass, the solute was fully dissolved.) |
| Oc1ccc(-c2c(-c3ccc(O)cc3)c(-c3ccc(O)cc3)c(-c3ccc(O)cc3)c(-c3ccc(O)cc3)c2-c2ccc(O)cc2)cc1 [G5] | A (Even when the amount of the solute mixed with the solvent was 10% by mass, the solute was fully dissolved.) | A (Even when the amount of the solute mixed with the solvent was 10% by mass, the solute was fully dissolved.) | A (Even when the amount of the solute mixed with the solvent was 10% by mass, the solute was fully dissolved.) |
| Oc1ccc(-c2c(-c3ccccc3)c(-c3ccccc3)c(-c3ccc(-c4ccc(-c5c(-c6ccccc6)c(-c6ccccc6)c(-c6ccc(O)cc6)c(-c6ccc(O)cc6)c5-c5ccccc5)cc4)cc3)c(-c3ccccc3)c2-c2ccc(O)cc2)cc1 [G6] | A (Even when the amount of the solute mixed with the solvent was 10% by mass, the solute was fully dissolved.) | A (Even when the amount of the solute mixed with the solvent was 10% by mass, the solute was fully dissolved.) | A (Even when the amount of the solute mixed with the solvent was 10% by mass, the solute was fully dissolved.) |
| Oc1ccc(-c2c(-c3ccccc3)c(-c3ccccc3)c(-c3c(-c4ccccc4)c(-c4c(-c5ccccc5)c(-c5ccccc5)c(-c5ccc(O)cc5)c(-c5ccc(O)cc5)c4-c4ccccc4)c(-c4ccccc4)c(-c4c(-c5ccccc5)c(-c5ccccc5)c(-c5ccc(O)cc5)c(-c5ccc(O)cc5)c4-c4ccccc4)c3-c3ccccc3)c(-c3ccccc3)c2-c2ccc(O)cc2)cc1 [G7] | B (When the amount of the solute mixed with the solvent was 10% by mass, the solute was not fully dissolved and some of it remained undissolved, while when the amount of the solute mixed with the solvent was 1% by mass, the solute was fully dissolved.) | B (When the amount of the solute mixed with the solvent was 10% by mass, the solute was not fully dissolved and some of it remained undissolved, while when the amount of the solute mixed with the solvent was 1% by mass, the solute was fully dissolved.) | A (Even when the amount of the solute mixed with the solvent was 10% by mass, the solute was fully dissolved.) |
| Nc1ccc(-c2c(-c3ccccc3)c(-c3ccccc3)c(-c3ccccc3)c(-c3ccccc3)c2-c2ccc(N)cc2)cc1 [G8] | A (Even when the amount of the solute mixed with the solvent was 10% by mass, the solute was fully dissolved.) | A (Even when the amount of the solute mixed with the solvent was 10% by mass, the solute was fully dissolved.) | A (Even when the amount of the solute mixed with the solvent was 10% by mass, the solute was fully dissolved.) |
| COc1ccc(-c2c(-c3ccccc3)c(-c3ccccc3)c(-c3ccc(-c4c(-c5ccccc5)c(-c5ccccc5)c(-c5ccc(OC)cc5)c(-c5ccc(OC)cc5)c4-c4ccccc4)cc3)c(-c3ccccc3)c2-c2ccc(OC)cc2)cc1 [Intermediate G0, reference compound] | C (Even when the amount of the solute mixed with the solvent was 1% by mass, the solute was not fully dissolved and some of it remained undissolved.) | C (Even when the amount of the solute mixed with the solvent was 1% by mass, the solute was not fully dissolved and some of it remained undissolved.) | C (Even when the amount of the solute mixed with the solvent was 1% by mass, the solute was not fully dissolved and some of it remained undissolved.) |
